One experiment addresses T1, PYR1-HAB1 (Arabidopsis thaliana, UniProt O49686).
T1 construct: the Pyr1 open reading frame was PCR amplified from genomic DNA; expressed in transfected cells; host or cells: yeast strain Y190
T1 sequence (O49686 1-191): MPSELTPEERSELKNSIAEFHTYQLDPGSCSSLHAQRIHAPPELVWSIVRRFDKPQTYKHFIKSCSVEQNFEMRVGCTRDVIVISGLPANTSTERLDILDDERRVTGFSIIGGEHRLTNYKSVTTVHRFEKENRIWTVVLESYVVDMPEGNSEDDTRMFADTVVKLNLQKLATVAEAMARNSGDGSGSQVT
T1 sequence (Q9CAJ0 23-511 partner): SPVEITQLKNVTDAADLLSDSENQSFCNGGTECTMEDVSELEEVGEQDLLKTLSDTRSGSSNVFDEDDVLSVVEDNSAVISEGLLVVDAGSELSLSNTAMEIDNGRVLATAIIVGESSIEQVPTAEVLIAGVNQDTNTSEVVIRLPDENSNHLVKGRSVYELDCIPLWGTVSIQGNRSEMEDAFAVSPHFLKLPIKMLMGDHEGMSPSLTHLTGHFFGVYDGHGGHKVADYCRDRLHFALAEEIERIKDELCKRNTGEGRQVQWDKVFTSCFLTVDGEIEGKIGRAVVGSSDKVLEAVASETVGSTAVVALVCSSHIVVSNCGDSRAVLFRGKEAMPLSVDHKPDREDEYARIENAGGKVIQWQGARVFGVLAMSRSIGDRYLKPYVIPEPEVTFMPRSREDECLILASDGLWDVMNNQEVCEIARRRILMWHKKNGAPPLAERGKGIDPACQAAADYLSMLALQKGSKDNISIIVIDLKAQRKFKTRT
Nature of the experiment: Yeast two-hybrid BD-PYR1 / AD-HAB1 interaction, X-gal stain. The note with it: 10 μM, except epi-brassinolide (50 nM). The class given is cell-based. As to the method:
(§1) Given that PYR1 is necessary for pyrabactin action and is a predicted ligand-binding protein, we hypothesized that pyrabactin agonizes ABA signaling by inducing a protein-protein interaction between PYR1 and a downstream effector. To test this, ˜2 million prey cDNA clones were screened against a PYR1 Y2H bait construct on media containing 10 μM pyrabactin. To create the PYR1 Y2H bait construct, the Pyr1 open reading frame was PCR amplified from genomic DNA and cloned to pGem-T easy vector (Promega). After sequence confirmation, the Pyr1 ORF was then cloned in-frame between EcoRI and SalI sites of the pBD-GAL4 Cam vector (Stratagene) and transformed into yeast strain Y190. For the screen, an etiolated seedling cDNA library (J. Kim, K., Harter, A., Theologis, Proc Natl Acad Sci USA 94, 11786 (Oct. 28, 1997)) (ABRC stock CD4-22) was used. The cDNA library was first converted from phage to plasmid DNA, yielding 7.6×10^7 transformants. Plasmid DNA prepared from library was then used to transform Y190 as described in the GAL4 Two-Hybrid system manual (Stratagene). For each screen, 40 μg of prey plasmid was transformed into 1 ml of competent Y190 cell harboring bait construct and then grown on SD agar plates lacking His, Leu, and Trp, but containing 15 mM 3-AT and 10 μM pyrabactin. After 4 days incubation at 30° C., well-grown colonies were rescued and interactions validated using filter lift assay or chloroform-agarose overlay method and X-Gal staining. This identified two pyrabactin-dependent hits which sequencing determined encoded cDNAs for the PP2C HAB1, a close relative of the well-characterized ABA response factor ABI1 (A. Saez et al., The Plant Journal 37, 354 (2004); N. Leonhardt et al., THE PLANT CELL 16, 596 (2004)). Next, Y2H strains expressing an AD-HAB1 fusion protein and a BD-PYR1 fusion protein were grown on plates and tested for interactions in response to various compounds, all at 10 μM except for epi-brassinolide (50 nM) and dimethyl sulfoxide (DMSO) (carrier solvent, 1%). […] Thus, PYR1 interacts with HAB1 in a (+)-ABA dependent fashion.

In the next experiment the target is T2, PYL2-HAB1 (Arabidopsis thaliana, UniProt O80992).
T2 construct: BD-PYR/PYL fusion proteins were constructed in the same manner as for BD-PYR1 above; expressed in transfected cells; host or cells: yeast (Y190, as for BD-PYR1)
T2 sequence (O80992 1-190): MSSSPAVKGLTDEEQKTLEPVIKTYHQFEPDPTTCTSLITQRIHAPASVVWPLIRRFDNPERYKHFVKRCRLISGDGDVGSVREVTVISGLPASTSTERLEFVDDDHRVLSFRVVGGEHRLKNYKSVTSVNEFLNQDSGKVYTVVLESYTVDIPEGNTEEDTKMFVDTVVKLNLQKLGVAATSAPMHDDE
T2 sequence (Q9CAJ0 23-511 partner): T1 sequence (Q9CAJ0 23-511 partner)
Nature of the experiment: Yeast two-hybrid BD-PYL2 / AD-HAB1 interaction, X-gal stain. The class given is cell-based. The note with it: 10 μM. As for the experimental part: as §1, with “fashion. […]” for “fashion.”

In the next experiment the target is T3, PYL4-HAB1 (Arabidopsis thaliana, UniProt O80920).
T3 construct: BD-PYR/PYL fusion proteins were constructed in the same manner as for BD-PYR1 above; expressed in transfected cells; host or cells: yeast (Y190, as for BD-PYR1)
T3 sequence (O80920 1-207): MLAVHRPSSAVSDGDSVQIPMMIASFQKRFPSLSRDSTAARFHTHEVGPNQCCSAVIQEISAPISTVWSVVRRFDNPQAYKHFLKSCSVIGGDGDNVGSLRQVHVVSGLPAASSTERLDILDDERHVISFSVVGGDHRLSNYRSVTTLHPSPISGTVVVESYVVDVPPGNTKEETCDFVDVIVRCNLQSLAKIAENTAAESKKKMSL
T3 sequence (Q9CAJ0 23-511 partner): T1 sequence (Q9CAJ0 23-511 partner)
Nature of the experiment: Yeast two-hybrid BD-PYL4 / AD-HAB1 interaction. The class given is cell-based. As for the experimental part: as §1
To see if ABA and pyrabactin responsiveness is unique to PYR1, we tested 11 of the 13 PYL proteins as described above, using Y2H strains expressing an AD-HAB1 fusion protein and a BD-PYR/PYL fusion protein (listed at the left of FIG. 3A). BD-PYR/PYL fusion proteins were constructed in the same manner as for BD-PYR1 above. […] Of these, only Pyr1 is highly transcribed in seeds, which likely explains why mutations in Pyr1 cause the seeds to be insensitive to pyrabactin. […] However the interactions of PYLs 5-12 with the PP2Cs are indicative that the entire protein family is likely to share a similar mechanism of action involving PP2C modulation, as we describe below. […]

The target of the next experiment is T4, PYL3-HAB1 (Arabidopsis thaliana, UniProt Q9SSM7).
T4 construct: BD-PYR/PYL fusion proteins were constructed in the same manner as for BD-PYR1 above; expressed in transfected cells; host or cells: yeast (Y190, as for BD-PYR1)
T4 sequence (Q9SSM7 1-209): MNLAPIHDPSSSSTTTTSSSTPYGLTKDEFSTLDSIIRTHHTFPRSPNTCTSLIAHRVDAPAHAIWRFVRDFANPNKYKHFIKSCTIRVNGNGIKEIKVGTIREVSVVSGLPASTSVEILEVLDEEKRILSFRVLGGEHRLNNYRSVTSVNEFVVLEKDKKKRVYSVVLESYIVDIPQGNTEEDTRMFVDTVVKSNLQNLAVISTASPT
T4 sequence (Q9CAJ0 23-511 partner): T1 sequence (Q9CAJ0 23-511 partner)
Nature of the experiment: Yeast two-hybrid BD-PYL3 / AD-HAB1 interaction. The experiment is classed as cell-based. As to the method: as §1
To see if ABA and pyrabactin responsiveness is unique to PYR1, we tested 11 of the 13 PYL proteins as described above, using Y2H strains expressing an AD-HAB1 fusion protein and a BD-PYR/PYL fusion protein (listed at the left of FIG. 3A). BD-PYR/PYL fusion proteins were constructed in the same manner as for BD-PYR1 above. […] Of these, only Pyr1 is highly transcribed in seeds, which likely explains why mutations in Pyr1 cause the seeds to be insensitive to pyrabactin. […] However the interactions of PYLs 5-12 with the PP2Cs are indicative that the entire protein family is likely to share a similar mechanism of action involving PP2C modulation, as we describe below. Thus, we conclude that entire family modulates ABA responses via PP2C interactions.
The yeast strains expressing PYR/PYL receptors and type 2 C protein phosphatases were also used to screen HPLC-fractionated plant extracts for the presence of endogenous compounds that activate PYL/PYL receptors PYR1, PYL2, PYL3, and/or PYL4. HPLC fractionation of extracts was used to identify compounds different from abscisic acid (the known agonist). […] Purification of the agonist was achieved via multiple rounds of chromatographic separation coupled to yeast two hybrid assays that informed the fractions to move forward at each step of the purification. The structure of the purified agonist was deduced by X-ray crystallography of crystalline purified agonist.

A further experiment has as its system Arabidopsis seeds. Nature of the experiment: Seed germination inhibition. The experiment is classed as in vivo. Conditions: in vivo. As for the experimental part:
FIG. 1. Pyrabactin is a seed selective ABA agonist. (A) Structures of molecules described in this study. (B) Pyrabactin activity is suppressed by abi1-1. Seeds of the genotype shown at top were imbibed on media containing 25 μM pyrabactin and scored for germination 4 days after stratification. Shown at bottom are IC50 values for pyrabactin's germination effect on the genotypes characterized. (C) Microarray comparison of pyrabactin and ABA treatments in seeds. The Y-axis plots the log2 transformed value for a probe's response to 25 μM pyrabactin (relative to untreated control) and the X-axis a probe's response to 1 μM ABA. […] (D) Microarray comparison of cycloheximide and ABA responses in seeds. […] (E) Microarray comparison of pyrabactin and ABA responses in seedlings. Seven-day old seedlings were transferred to 10 μM ABA or 50 μM pyrabactin containing plates for 24 hours and then mRNA samples profiled. Inset in each scatter plot is the Pearson correlation coefficient for each comparison. Detailed microarray methods are described in the Examples section.
FIG. 2. PYR1 encodes an ABA responsive START-domain protein. (A) Pyr1 alleles. Shown are the allele names, strain names (in parentheses) and amino acid changes caused by the Pyr1 mutant alleles identified by screening for pyrabactin resistant mutations. (B) Pictographic representation of Pyr1 and Pyl1-Pyl4 expression values housed in public microarray databases. The heatmap shown at top right is for the first upper three panels and the bottom heatmap for the guard cell data. Plots were made using the eFP browser (D. Winter et al., PLoS ONE 2, e718 (2007)). (C) 35S::GFP-PYR1 complements pyr1-1. Seeds of the genotypes shown were stratified 4 days on 25 μM pyrabactin and then germinated at RT, 90% RH for 3 days in darkness. […] (D) Pyr/Pyls are required for normal ABA-induced gene expression in seedlings. Shown are qRT-PCR results for the ABA-responsive gene RD29. L, Ler; C, Col; and Q, quadruple mutant. (E) Pyr/Pyl genes are required for normal ABA-induced stress-induced gene expression in seedlings. Shown are qRT-PCR results for two ABA-responsive taqman probes, as described in the Examples section. L=Ler, C=Col, Q=quadruple mutant.
As part of an earlier effort, we identified a germination inhibitor named pyrabactin (Y. Zhao et al., Nat Chem Biol 3, 716 (2007)). […] To test this hypothesis, we examined the pyrabactin sensitivity of mutant lines with altered ABA signaling, biosynthesis or gibberellic acid (GA) perception.
We next performed microarray experiments to evaluate the similarity of the transcriptional responses induced by ABA and pyrabactin treatments. For microarray, tissue was prepared and RNA extracted from Columbia wild type seeds sown on 0.5×MS media (˜2500 seeds per 150 mm plate) containing either 1 μM ABA, 25 μM pyrabactin, 25 μM 2,4-Dinitrophenol (DNP), 1 μM cycloheximide, 2 μM methotrexate or 1% DMSO control plates (all chemicals are dissolved in DMSO). The concentrations utilized for these experiments were normalized for germination inhibition activity by dose curve analyses, i.e. the amount of both compounds required to ensure 100% inhibition of germination when scored 3 days post-imbibition. ABA (±stereoisomers), DNP, cycloheximide and methotrexate were purchased from Sigma Aldrich. Seeds were stratified for 4 days and then incubated in the dark at room temperature for 24 hours. […]

[1] abbreviates: plant extract screen and related commercial compounds.

Consider `CC/C=C\CC1C(=O)CCC1CC(=O)OC` (stereo not shown) [methyl jasmonate], for which the “PYR1-HAB1 interaction by X-gal stain” value at PYR1-HAB1 was “neither (−)-ABA, kinetin, 2,4-D, Gibberellic acid (GA), epi-brassinolide (BR), methyl jasmonate (meJA) or apyrabactin showed activity”. (−)-ABA: the “PYL2-HAB1 interaction by X-gal stain” value on PYL2-HAB1 is “respond”. The “PYL4-HAB1 interaction by X-gal stain” value on PYL4-HAB1 (10 μM) is “respond”. Besides, the “PYL3-HAB1 interaction by X-gal stain” value at PYL3-HAB1 (10 μM) is listed as “respond”. Besides, the “PYR1-HAB1 interaction by X-gal stain” value at PYR1-HAB1 is recorded as “neither (−)-ABA, kinetin, 2,4-D, Gibberellic acid (GA), epi-brassinolide (BR), methyl jasmonate (meJA) or apyrabactin showed activity”. `C=C(C(=O)O)[C@@H]1CC[C@@H](C)[C@@H]2CCC(C)=C[C@@H]21` [artemisinic acid]: the “PYL4 agonist activity in yeast two hybrid assays” value at PYL4-HAB1 (setting [1]) is listed as “PYL3/PYL4 selective agonist”. Also, the “PYL3 agonist activity in yeast two hybrid assays” value on PYL3-HAB1 (setting [1]) is recorded as “PYL3/PYL4 selective agonist”. As to `C=C1C[C@]23C[C@@]1(O)CC[C@H]2[C@@]12C=C[C@H](O)[C@@](C)(C(=O)O1)[C@H]2[C@@H]3C(=O)O` [Gibberellic acid], the “PYR1-HAB1 interaction by X-gal stain” value at PYR1-HAB1 was “neither (−)-ABA, kinetin, 2,4-D, Gibberellic acid (GA), epi-brassinolide (BR), methyl jasmonate (meJA) or apyrabactin showed activity”. Regarding `O=C(O)COc1ccc(Cl)cc1Cl` [2,4-D], the “PYR1-HAB1 interaction by X-gal stain” value at PYR1-HAB1 is “neither (−)-ABA, kinetin, 2,4-D, Gibberellic acid (GA), epi-brassinolide (BR), methyl jasmonate (meJA) or apyrabactin showed activity”. Still for that read-out and setting: to `CC(C)[C@@H](C)[C@@H](O)[C@H](O)[C@@H](C)[C@H]1CC[C@H]2[C@@H]3COC(=O)[C@H]4C[C@H](O)[C@H](O)C[C@]4(C)[C@H]3CC[C@]12C` [epi-brassinolide] belongs “neither (−)-ABA, kinetin, 2,4-D, Gibberellic acid (GA), epi-brassinolide (BR), methyl jasmonate (meJA) or apyrabactin showed activity”; to `c1coc(CNc2ncnc3[nH]cnc23)c1` [kinetin], “neither (−)-ABA, kinetin, 2,4-D, Gibberellic acid (GA), epi-brassinolide (BR), methyl jasmonate (meJA) or apyrabactin showed activity”. On to `O=S(=O)(NCc1ccccc1)c1ccc(Br)c2ccccc12` [apyrabactin], for which the “PYR1-HAB1 interaction by X-gal stain” value at PYR1-HAB1 is listed as “neither (−)-ABA, kinetin, 2,4-D, Gibberellic acid (GA), epi-brassinolide (BR), methyl jasmonate (meJA) or apyrabactin showed activity”. The effect on germination entry in the experiment with Arabidopsis seeds is “inactive analog”.
